Results as given in paper PMC7344389, “Discovery of Anti-Amoebic Inhibitors from Screening the MMV Pandemic Response Box on Balamuthia mandrillaris, Naegleria fowleri, and Acanthamoeba castellanii” (Pathogens, 2020).
Values joined by “and” are separate entries in the source; they are usually repeats but may differ in a detail not shown here. Identical values can stand only once. Like-named read-outs stand apart in the source and are kept apart here.

Assays:
Type in all cases: cell-based
[1] = tested on: A549 human lung carcinoma cells; assay: MTS cytotoxicity counter-screen of reconfirmed hits
Experimental: Cytotoxicity of the reconfirmed hits was determined by using the CellTiter 96® AQueous One Solution Cell Proliferation Assay (Promega, Madison, WI) on A549 human lung carcinoma cells. A549 cells were seeded at a concentration of 1.6 × 10^4 cells/mL in 96-well tissue culture plates (Corning, NY, USA), in the presence of serially diluted active hits against B. mandrillaris, N. fowleri, or A. castellanii. Positive control wells contained cells and media; negative control wells contained 0.1% DMSO. Cells were grown in F12K medium supplemented with 10% FBS and 1% gentamycin (all supplied from Fisher Scientific, Atlanta, GA, USA). The inhibitor concentration started at 10 µM and was diluted in doubling dilutions to assess cytotoxicity in comparison to the respective free-living amoeba. Total volume of each well was 100 µL and plates were incubated at 37 °C, 5% CO2 for 72 h. Next, 4 h before the time-point, 20 µL of MTS (Promega, Madison, WI, USA) was added to each well. Inhibition of A549 growth was assessed at the 72 h time-point measuring the optical density (OD) values at 490 nm using a SpectraMax I3X plate reader (Molecular Devices, Sunnyvale, CA, USA). Curve fitting using non-linear regression was carried out using the average of replicates and the Levenberg–Marquardt algorithm, using DMSO as the normalization control, as defined in CDD Vault (Burlingame, CA, USA).

[2] = tested on: Balamuthia mandrillaris trophozoites; assay: CellTiter-Glo 2.0 trophocidal assay, B. mandrillaris; settings: for IC50: 72 h, CTG method, duplicate twofold serial dilutions from 10 µM, mean ± SD; for Selectivity Index (A549 IC50/B. mandrillaris IC50): SI = (IC50 A549)/(IC50 Amoeba); for potency against B. mandrillaris, in words: dose-response, CTG
Experimental: Pathogenic Balamuthia mandrillaris (CDC:[…]; American Type Culture Collection (ATCC) 50209), a GAE isolate, isolated from a pregnant baboon at the San Diego Zoo in 1986 was donated by Luis Fernando […] University, Mexico [43]. Trophozoites were routinely grown axenically in Balamuthia mandrillaris Itson (BMI) media at 37 °C, 5% CO2 in vented 75 cm^2 tissue culture flasks (Olympus, El Cajon, CA, USA), until the cells were 80-90% confluent. For sub-culturing, 0.25% Trypsin-EDTA (Gibco, Gaithersburg, MD, USA) cell detachment reagent was used to detach the cells from the culture flasks. The cells were collected by centrifugation at 4000 rpm at 4 °C. Complete BMI media is produced by the addition of 10% fetal bovine serum (FBS) and 125 μg of penicillin/streptomycin antibiotics. The trophocidal activity of compounds was assessed using the CellTiter-Glo 2.0 luminescent viability assay (Promega, Madison, WI, USA), as previously described. Trophozoites were routinely cultured as described above and only logarithmic trophozoites were used. […] Inhibitors were assessed for percent inhibition using the criteria of ≤33% growth inhibition (no inhibition), 33-67% growth inhibition (moderate inhibition), and ≥67% growth inhibition (strong inhibition). […] We used this process to reduce the number of potential false positives. […] All assays were incubated at each of the parasites' representative growth temperatures, described above, for 72 h. At the 72 h time point, 25 μL of CellTiter-Glo 2.0 reagent was added to all wells of the 96-well plates using the Biomek NX^P automated workstation. The plates were protected from light and contents were mixed using an orbital shaker at 300 rpm at room temperature for 2 min to induce cell lysis. After shaking, the plates were equilibrated at room temperature for 10 min to stabilize the luminescent signal. The adenosine triphosphate (ATP) luminescent signal (relative light units; RLUs) was measured at 490 nm with a SpectraMax I3X plate reader (Molecular Devices, Sunnyvale, CA, USA). Drug inhibitory concentration (IC50) curves were generated using total ATP RLUs, where controls were calculated as the average of replicates using the Levenberg-Marquardt algorithm, using DMSO as the normalization control, as defined in Collaborative Drug Discovery Inc. (CDD) Vault (Burlingame, CA, USA). Values reported are from a minimum of two biological replicates with standard deviations.

[3] = tested on: Acanthamoeba castellanii trophozoites; assay: CellTiter-Glo 2.0 trophocidal assay, A. castellanii; settings: for IC50: 72 h, CTG method, duplicate twofold serial dilutions from 10 µM, mean ± SD; for Selectivity Index (A549 IC50/A. castellanii IC50): SI = (IC50 A549)/(IC50 Amoeba); for potency against A. castellanii, in words: dose-response, CTG
Experimental: This isolate was also purchased from ATCC. Trophozoites were routinely grown axenically at 27 °C in Protease Peptone-Glucose Media (PG) in non-vented 75 cm^2 tissue culture flasks (Olympus, El Cajon, CA, USA), until the cells were 80–90% confluent. For sub-culturing, cells were mechanically harvested to detach the cells from the culture flasks. The cells were collected by centrifugation at 4000 rpm at 4 °C.
The trophocidal activity of compounds was assessed using the CellTiter-Glo 2.0 luminescent viability assay (Promega, Madison, WI, USA), as previously described. Trophozoites were routinely cultured as described above and only logarithmic trophozoites were used. […] Initially all compounds were assessed in a single-point drug screen at 10 and 1 μM, as previously described. […] We used this process to reduce the number of potential false positives. Drugs were cherry-picked, dissolved in the media specific to each parasite, and assessed in twofold serial dilutions from the highest concentration of 10 μM. All assays were incubated at each of the parasites’ representative growth temperatures, described above, for 72 h. At the 72 h time point, 25 μL of CellTiter-Glo 2.0 reagent was added to all wells of the 96-well plates using the Biomek NX^P automated workstation. The plates were protected from light and contents were mixed using an orbital shaker at 300 rpm at room temperature for 2 min to induce cell lysis. After shaking, the plates were equilibrated at room temperature for 10 min to stabilize the luminescent signal. The adenosine triphosphate (ATP) luminescent signal (relative light units; RLUs) was measured at 490 nm with a SpectraMax I3X plate reader (Molecular Devices, Sunnyvale, CA, USA). Drug inhibitory concentration (IC50) curves were generated using total ATP RLUs, where controls were calculated as the average of replicates using the Levenberg–Marquardt algorithm, using DMSO as the normalization control, as defined in Collaborative Drug Discovery Inc. (CDD) Vault (Burlingame, CA, USA). Values reported are from a minimum of two biological replicates with standard deviations.

[4] = tested on: Naegleria fowleri trophozoites; assay: CellTiter-Glo 2.0 trophocidal assay, N. fowleri; settings: CTG method, 72 h, duplicate twofold serial dilutions from 10 µM, mean ± SD; read-out: N. fowleri Mean IC50 (µM) ± SD
Experimental: Pathogenic Naegleria fowleri (ATCC 30215), a clinical isolate obtained from a child in Adelaide, Australia, that died of PAM in 1969 was previously purchased from the American Type Culture Collection (ATCC). Trophozoites were routinely grown axenically at 34 °C in Nelson’s complete medium (NCM) in non-vented 75 cm^2 tissue culture flasks (Olympus, El Cajon, CA, USA), until the cells were 80–90% confluent. For sub-culturing, cells were placed on ice to detach the cells from the culture flasks. The cells were collected by centrifugation at 4000 rpm at 4 °C. Complete NCM media is produced by the addition of 10% FBS and 125 μg of penicillin/streptomycin antibiotics.
The trophocidal activity of compounds was assessed using the CellTiter-Glo 2.0 luminescent viability assay (Promega, Madison, WI, USA), as previously described. Trophozoites were routinely cultured as described above and only logarithmic trophozoites were used. In brief, B. mandrillaris, N. fowleri, or A. castellanii trophozoites cultured in their corresponding media were seeded at 16,000, 3000, or 1440 cells/well into white 96-well plates (Costar 3370), respectively. Initially all compounds were assessed in a single-point drug screen at 10 and 1 μM, as previously described. […] Control wells were supplemented with 0.1% (10 μM screening plate) or 0.01% (1 μM screening plate) DMSO, as the negative controls, or 12.5 μM of chlorhexidine, as the positive control. Following the single-point assays at 10 and 1 µM, we prioritized compounds for progression to IC50 determinations. […] We used this process to reduce the number of potential false positives. Drugs were cherry-picked, dissolved in the media specific to each parasite, and assessed in twofold serial dilutions from the highest concentration of 10 μM. All assays were incubated at each of the parasites’ representative growth temperatures, described above, for 72 h. At the 72 h time point, 25 μL of CellTiter-Glo 2.0 reagent was added to all wells of the 96-well plates using the Biomek NX^P automated workstation. The plates were protected from light and contents were mixed using an orbital shaker at 300 rpm at room temperature for 2 min to induce cell lysis. After shaking, the plates were equilibrated at room temperature for 10 min to stabilize the luminescent signal. The adenosine triphosphate (ATP) luminescent signal (relative light units; RLUs) was measured at 490 nm with a SpectraMax I3X plate reader (Molecular Devices, Sunnyvale, CA, USA). Drug inhibitory concentration (IC50) curves were generated using total ATP RLUs, where controls were calculated as the average of replicates using the Levenberg–Marquardt algorithm, using DMSO as the normalization control, as defined in Collaborative Drug Discovery Inc. (CDD) Vault (Burlingame, CA, USA). Values reported are from a minimum of two biological replicates with standard deviations.

[5] = Homo sapiens, A549, MTS assay, 72 h, doubling dilutions from 10 µM, read-out: A549 Mean IC50
[6] = MTS assay, 72 h, doubling dilutions from 10 µM, read-out: A549 Mean IC50

SMILES | IC50 [1, 5] [µM] | IC50 [2] | IC50 [1, 6] [µM] | IC50 [3] [µM] | other results
CN1CCN(Cc2ccc(-c3cnc4[nH]cc(-c5ccc6[nH]ccc6c5)c4c3)cc2)CC1 [URMC-099-C] | 4.2 | 5.35 ± 1.63 µM |  |  | IC50 ([2]; Balamuthia mandrillaris): ≤ 10 µM; Selectivity Index (A549 IC50/B. mandrillaris IC50) [2]: 0.79
CNCC(=O)OCc1cccnc1N(C)C(=O)OC(C)[n+]1cnn(C[C@](O)(c2cc(F)ccc2F)[C@@H](C)c2nc(-c3ccc(C#N)cc3)cs2)c1 (stereo partly drawn) [Isavuconazonium] | > 10 |  |  |  | IC50 ([3]; Acanthamoeba castellanii): 0.09 ± 0.02 µM; Selectivity Index (A549 IC50/A. castellanii IC50) [3]: ≥105; Selectivity Index (A549 IC50/A. castellanii IC50) ([3]; listed as isavuconazonium): ≥ 10; potency against A. castellanii, in words [3]: nanomolar potency
Clc1ccc(Cn2c(CN3CCCC3)nc3ccccc32)cc1 [Clemizole] | > 10 | 8.95 ± 1.48 µM |  |  | IC50 ([2]; Balamuthia mandrillaris): ≤ 10 µM; Selectivity Index (A549 IC50/B. mandrillaris IC50) [2]: ≥1.12
Cc1ccc(N2CCC(CCOc3ccc(S(C)(=O)=O)cc3)CC2)nn1 [MMV1634394] |  | ≤ 10 µM and 8.05 µM | > 10 |  | 
Clc1cc(Cl)c2c(c1)CCc1ccccc1C2n1ccnc1 (stereo not drawn) [Eberconazole] |  | > 10 µM | > 10 | 3.7 ± 1.13 | IC50 [4]: 1.22 ± 0.66 µM; IC50 ([3]; listed as eberconazole): ≤ 10 µM
C(=C\c1nc2ccccc2[nH]1)/c1ccc2c(c1)OCO2 [MMV1582495] |  | 0.54 ± 0.04 µM | > 10 |  | potency against B. mandrillaris, in words [2]: nanomolar potency
CCc1nc(N)nc(N)c1C#CC(C)c1cc(OC)cc(-c2ccncc2)c1 (stereo not drawn) [MMV1580844] |  | 0.53 ± 0.11 µM | > 10 |  | potency against B. mandrillaris, in words [2]: nanomolar potency
O[C@@](Cn1cnnn1)(c1ccc(F)cc1F)C(F)(F)c1ccc(-c2ccc(OCC(F)(F)F)cc2)cn1 [MMV1634386] |  | > 10 µM | > 10 | 0.16 ± 0.09 | IC50 [4]: 2.4 ± 1.7 µM; potency against A. castellanii, in words [3]: nanomolar potency
O=C(/C=C\n1cnc(-c2cc(C(F)(F)F)cc(C(F)(F)F)c2)n1)NNc1cnccn1 [Selinexor] | > 10 | 9.2 ± 1.13 µM |  |  | IC50 ([2]; Balamuthia mandrillaris): ≤ 10 µM; Selectivity Index (A549 IC50/B. mandrillaris IC50) [2]: ≥1.09
N#Cc1c(F)c(Cl)c(NCc2ccccc2)c(C#N)c1F [MMV1582496] |  |  | > 10 | 0.61 ± 0.35 | potency against A. castellanii, in words [3]: nanomolar potency
Cc1nc2ccc(Oc3ccccc3)cc2c2c1CCN2CCc1ccccc1 [MMV1634399] |  | 0.73 ± 0.28 µM | > 10 |  | potency against B. mandrillaris, in words [2]: nanomolar potency
CC(=O)N1CCN(c2ccc(OCC3COC(Cn4ccnc4)(c4ccc(Cl)cc4Cl)O3)cc2)CC1 (stereo not drawn) [Ketoconazole] | > 10 |  |  | 1.24 ± 0.8 | IC50 ([3]; listed as ketoconazole): ≤ 10 µM
O=C1C=C(c2ccccc2)S(=O)(=O)c2ccccc21 [1,1-dioxide 1-thioflavone] |  | 0.37 ± 0.01 µM | > 10 | > 10 | potency against B. mandrillaris, in words [2]: nanomolar potency; IC50 [4]: 5 µM
O=[N+]([O-])/C(Br)=C/c1ccc(Br)o1 [Furvina] |  |  | > 10 | 4.2 ± 0.85 | IC50 ([3]; listed as furvina): ≤ 10 µM
O=C(O)C(F)(F)F [Trifluoroacetic acid] |  |  |  | 1.97 ± 1 | IC50 ([1]; Homo sapiens, A549, 72 h, read-out: A549 Mean IC50 (µM)): > 10 µM; IC50 ([3]; listed as trifluoroacetic acid): ≤ 10 µM; Selectivity Index (A549 IC50/A. castellanii IC50) [3]: ≥5.10
CCCCC(CC)CNC(=N)NC(=N)NCCCCCCNC(=N)NC(=N)NCC(CC)CCCC (stereo not drawn) [Alexidine] | 2.1 |  |  | 2.4 ± 1.56 | IC50 ([3]; listed as alexidine): ≤ 10 µM; Selectivity Index (A549 IC50/A. castellanii IC50) [3]: 0.88
O=C(/C(=C/c1ccc(Cl)cc1Cl)n1ccnc1)c1ccc(Cl)cc1 [MMV1634491] |  | > 10 µM | > 10 |  | IC50 [4]: 5.15 ± 1.35 µM
